ChEMBL document CHEMBL1158434, “Discovery of a potent and brain penetrant mGluR5 positive allosteric modulator” (Bioorg Med Chem Lett, 2009)
Converted amounts (≈) assume the structure as drawn. Values belong to the compound of their own block, whether it stands above or below them. The source made the active and inactive calls. The calls are words filed in the database; no cut-off is given here.

What was measured:
[1] = target: T1, Metabotropic glutamate receptor 5 (Homo sapiens, UniProt P41594); test: Agonist activity at human mGluR5 transiently transfected in BHK cells assessed as potentiation of L-glutamate-induced calcium flux at 100 nM by FLIPR assay; assay type: functional, cell-based
Target sequence in this assay (P41594 21-1212 limits assumed): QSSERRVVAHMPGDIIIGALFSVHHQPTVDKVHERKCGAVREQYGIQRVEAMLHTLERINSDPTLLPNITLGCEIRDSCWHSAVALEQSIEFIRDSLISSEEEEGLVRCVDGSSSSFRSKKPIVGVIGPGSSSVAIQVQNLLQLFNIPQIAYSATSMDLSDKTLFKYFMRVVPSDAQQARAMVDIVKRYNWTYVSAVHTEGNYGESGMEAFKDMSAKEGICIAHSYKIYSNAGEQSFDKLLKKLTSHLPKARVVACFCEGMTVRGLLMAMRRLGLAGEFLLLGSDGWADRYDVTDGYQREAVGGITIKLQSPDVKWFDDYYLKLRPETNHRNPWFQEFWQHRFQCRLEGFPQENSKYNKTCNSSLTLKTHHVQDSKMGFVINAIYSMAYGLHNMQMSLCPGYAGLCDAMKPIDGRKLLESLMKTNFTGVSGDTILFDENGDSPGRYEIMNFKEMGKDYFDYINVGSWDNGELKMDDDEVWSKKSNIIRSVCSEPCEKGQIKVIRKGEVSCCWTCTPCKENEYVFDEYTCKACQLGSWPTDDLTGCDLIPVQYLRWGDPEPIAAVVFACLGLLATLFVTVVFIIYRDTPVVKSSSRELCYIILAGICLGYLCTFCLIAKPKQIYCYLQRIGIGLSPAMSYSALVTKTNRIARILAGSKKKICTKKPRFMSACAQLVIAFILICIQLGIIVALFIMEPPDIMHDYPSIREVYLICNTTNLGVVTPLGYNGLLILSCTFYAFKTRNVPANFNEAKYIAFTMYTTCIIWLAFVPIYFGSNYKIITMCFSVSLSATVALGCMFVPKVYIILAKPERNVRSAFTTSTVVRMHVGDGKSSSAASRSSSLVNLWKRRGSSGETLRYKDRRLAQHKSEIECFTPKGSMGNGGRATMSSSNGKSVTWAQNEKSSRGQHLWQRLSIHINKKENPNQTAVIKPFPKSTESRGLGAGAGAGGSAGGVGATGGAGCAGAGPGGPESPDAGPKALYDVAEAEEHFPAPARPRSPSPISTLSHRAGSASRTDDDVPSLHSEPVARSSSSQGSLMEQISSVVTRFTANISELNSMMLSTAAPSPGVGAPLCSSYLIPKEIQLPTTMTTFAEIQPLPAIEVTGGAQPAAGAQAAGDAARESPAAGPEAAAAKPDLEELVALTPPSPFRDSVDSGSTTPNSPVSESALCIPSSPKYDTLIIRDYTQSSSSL

[2] = target: T1, Metabotropic glutamate receptor 5; test: Agonist activity at human mGluR5 transiently transfected in BHK cells assessed as potentiation of L-glutamate-induced calcium flux by FLIPR assay; assay type: functional, cell-based
Target sequence in this assay (P41594 whole entry): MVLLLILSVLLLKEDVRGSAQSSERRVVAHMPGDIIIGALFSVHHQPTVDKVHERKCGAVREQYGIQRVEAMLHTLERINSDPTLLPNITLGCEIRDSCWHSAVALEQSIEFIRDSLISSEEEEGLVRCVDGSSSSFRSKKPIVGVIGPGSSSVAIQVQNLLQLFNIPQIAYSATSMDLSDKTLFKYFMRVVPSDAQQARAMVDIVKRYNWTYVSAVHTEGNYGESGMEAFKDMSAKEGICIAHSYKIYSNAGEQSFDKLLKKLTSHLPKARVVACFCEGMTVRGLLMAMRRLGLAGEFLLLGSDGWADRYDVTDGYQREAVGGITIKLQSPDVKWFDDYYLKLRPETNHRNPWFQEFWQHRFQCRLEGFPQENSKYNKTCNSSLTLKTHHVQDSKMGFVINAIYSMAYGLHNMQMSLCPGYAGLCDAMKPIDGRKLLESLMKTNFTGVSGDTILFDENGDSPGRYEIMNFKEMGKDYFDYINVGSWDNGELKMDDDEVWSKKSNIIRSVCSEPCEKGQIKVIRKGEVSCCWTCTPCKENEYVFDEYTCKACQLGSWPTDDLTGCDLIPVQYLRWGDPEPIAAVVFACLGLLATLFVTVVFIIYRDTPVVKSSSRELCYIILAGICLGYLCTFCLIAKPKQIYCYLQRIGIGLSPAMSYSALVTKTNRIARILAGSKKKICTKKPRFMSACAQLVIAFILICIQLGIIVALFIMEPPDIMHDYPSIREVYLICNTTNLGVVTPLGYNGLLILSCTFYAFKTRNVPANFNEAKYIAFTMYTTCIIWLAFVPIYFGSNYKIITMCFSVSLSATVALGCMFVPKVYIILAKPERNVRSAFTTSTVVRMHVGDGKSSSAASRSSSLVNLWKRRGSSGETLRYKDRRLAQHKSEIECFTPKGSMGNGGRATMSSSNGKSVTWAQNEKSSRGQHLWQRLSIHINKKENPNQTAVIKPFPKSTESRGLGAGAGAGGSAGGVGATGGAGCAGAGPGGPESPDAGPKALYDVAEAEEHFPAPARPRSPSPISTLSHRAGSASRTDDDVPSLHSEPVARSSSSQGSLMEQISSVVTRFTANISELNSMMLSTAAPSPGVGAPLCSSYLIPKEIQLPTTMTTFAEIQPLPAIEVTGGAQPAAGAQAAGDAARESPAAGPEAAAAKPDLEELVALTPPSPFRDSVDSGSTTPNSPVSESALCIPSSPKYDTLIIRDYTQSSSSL

[3] = target: Metabotropic glutamate receptor 1 (Homo sapiens) (UniProt Q13255); test: Antagonist activity at mGluR1 at 10 uM; assay type: functional
Sequence of Metabotropic glutamate receptor 1 (Homo sapiens) (Q13255 19-1194 limits assumed): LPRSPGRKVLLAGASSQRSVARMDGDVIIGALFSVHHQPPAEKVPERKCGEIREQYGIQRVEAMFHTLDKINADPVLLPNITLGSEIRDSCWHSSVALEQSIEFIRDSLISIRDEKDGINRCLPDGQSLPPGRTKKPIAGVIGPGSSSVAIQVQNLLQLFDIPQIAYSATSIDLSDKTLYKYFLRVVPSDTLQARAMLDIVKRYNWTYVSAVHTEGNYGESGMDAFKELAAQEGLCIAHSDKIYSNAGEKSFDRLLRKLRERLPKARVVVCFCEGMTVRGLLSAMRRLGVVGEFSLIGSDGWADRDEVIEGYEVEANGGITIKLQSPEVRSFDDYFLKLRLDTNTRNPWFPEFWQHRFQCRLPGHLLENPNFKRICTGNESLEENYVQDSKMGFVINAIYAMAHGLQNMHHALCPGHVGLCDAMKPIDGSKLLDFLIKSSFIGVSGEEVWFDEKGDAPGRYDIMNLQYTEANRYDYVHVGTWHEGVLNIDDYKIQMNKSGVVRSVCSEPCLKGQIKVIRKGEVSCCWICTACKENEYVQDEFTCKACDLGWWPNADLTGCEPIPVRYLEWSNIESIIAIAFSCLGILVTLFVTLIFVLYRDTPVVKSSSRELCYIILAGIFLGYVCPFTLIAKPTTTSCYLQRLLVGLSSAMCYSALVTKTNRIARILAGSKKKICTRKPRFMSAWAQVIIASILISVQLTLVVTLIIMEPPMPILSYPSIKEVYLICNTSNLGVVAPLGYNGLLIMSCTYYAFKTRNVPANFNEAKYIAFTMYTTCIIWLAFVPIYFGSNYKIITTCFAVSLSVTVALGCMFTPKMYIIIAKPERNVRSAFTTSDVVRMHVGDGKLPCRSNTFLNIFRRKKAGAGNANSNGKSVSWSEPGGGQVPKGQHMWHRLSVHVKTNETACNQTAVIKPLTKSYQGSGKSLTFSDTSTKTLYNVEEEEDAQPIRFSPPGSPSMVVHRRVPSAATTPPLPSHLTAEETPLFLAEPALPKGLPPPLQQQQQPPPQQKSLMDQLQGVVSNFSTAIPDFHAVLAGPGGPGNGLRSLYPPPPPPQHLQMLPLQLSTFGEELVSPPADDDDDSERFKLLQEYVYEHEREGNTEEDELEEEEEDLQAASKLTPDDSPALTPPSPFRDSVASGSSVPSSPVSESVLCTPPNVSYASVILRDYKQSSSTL

[4] = Elimination half life in Lister Hooded rat at 2.5 mg/kg, po; assay type: ADME, organism-based; set-up: dose 2.5 mg/kg, route oral; conditions: in vivo, read-out: beta t1/2 (converted)
[5] = target: T1, Metabotropic glutamate receptor 5; test: Agonist activity at human mGluR5 transiently transfected in BHK cells assessed as potentiation of L-glutamate-induced calcium flux at 1000 nM by FLIPR assay; assay type: functional, cell-based
Target sequence in this assay (P41594 21-1212 limits assumed): as the sequence (P41594 21-1212 limits assumed) above

[6] = target: T1, Metabotropic glutamate receptor 5; test: Displacement of [3H]MPEP from human recombinant mGluR5 expressed in BHK cells at by radioligand binding assay; assay type: cell-based
Target sequence in this assay (P41594 whole entry): as the sequence (P41594 whole entry) above

[7] = Elimination half life in C57/6J mouse at 5 mg/kg, po; assay type: ADME, organism-based; set-up: dose 5 mg/kg, route oral; conditions: in vivo, read-out: beta t1/2 (converted)
[8] = Ratio of drug level in brain to plasma in Lister Hooded rat at 2.5 mg/kg, po by turboflow chromatography; assay type: ADME, organism-based; set-up: dose 2.5 mg/kg, route oral; conditions: brain and plasma
[9] = target: Metabotropic glutamate receptor 1 (Homo sapiens) (UniProt Q13255); test: Allosteric modulation of mGluR1 at 10 uM
[10] = target: T1, Metabotropic glutamate receptor 5; test: Activity at human mGluR5 transiently transfected in BHK cells assessed as decrease in maximum response of L-glutamate for calcium flux at 0.60 uM by FLIPR assay; assay type: functional, cell-based
Target sequence in this assay (P41594 21-1212 limits assumed): as the sequence (P41594 21-1212 limits assumed) above

[11] = target: T1, Metabotropic glutamate receptor 5; test: Displacement of [3H]quisqualic acid from human recombinant mGluR5 expressed in BHK cells by radioligand binding assay; assay type: cell-based
Target sequence in this assay (P41594 21-1212 limits assumed): as above

[12] = Ratio of drug level in brain to plasma in C57/6J mouse at 5 mg/kg, po by turboflow chromatography; assay type: ADME, organism-based; set-up: dose 5 mg/kg, route oral; conditions: brain and plasma
[13] = target: T1, Metabotropic glutamate receptor 5; test: Agonist activity at human mGluR5 transiently transfected in BHK cells assessed as 5.5 fold decrease in L-glutamate EC50 for induction of calcium flux at 1 uM by FLIPR assay
Target sequence in this assay (P41594 21-1212 limits assumed): as above

[14] = Aqueous solubility at pH 7.4; assay type: physicochemical; conditions: aqueous medium
[15] = target: T1, Metabotropic glutamate receptor 5; test: Potentiation of [3H]quisqualic acid binding to human recombinant mGluR5 expressed in BHK cells at >1 uM by radioligand binding assay; assay type: cell-based
Target sequence in this assay (P41594 21-1212 limits assumed): as above

[16] = target: Metabotropic glutamate receptor 1 (Homo sapiens) (UniProt Q13255); test: Agonist activity at mGluR1 at 10 uM; assay type: functional
[17] = target: T1, Metabotropic glutamate receptor 5; test: Agonist activity at human mGluR5 transiently transfected in BHK cells assessed as potentiation of L-glutamate-induced calcium flux by FLIPR assay relative to L-glutamate; assay type: functional, cell-based
[18] = target: T1, Metabotropic glutamate receptor 5; test: Agonist activity at human mGluR5 transiently transfected in BHK cells assessed as potentiation of L-glutamate-induced calcium flux at 10 uM by FLIPR assay
Target sequence in this assay (P41594 whole entry): as the sequence (P41594 whole entry) above

EC50 [2]: 990 nM
Compound: O=C(c1ccc(C#Cc2ccccc2)nc1)N1CCOCC1

EC50 [2]: 46 nM
Compound: O=C(c1ccc(C#Cc2ccccc2)nc1)N1CCSCC1

EC50 [2]: 280 nM
Compound: O=C(c1ccc(C#Cc2ccccc2)nc1)N1CCCCC1

EC50 [2]: 720 nM
Compound: CC1CCN(C(=O)c2ccc(C#Cc3ccccc3)cc2)CC1

EC50 [2]: 1600 nM
Compound: CN1CCN(C(=O)c2ccc(C#Cc3ccccc3)nc2)CC1

EC50 [2]: 130 nM
Compound: CC1CCN(C(=O)c2ccc(C#Cc3ccccc3)nc2)CC1

EC50 [2]: 1200 nM
Compound: CC1CCC(NC(=O)c2ccc(C#Cc3ccccc3)nc2)CC1 (stereo not drawn)

The next lines start with the compound.

Compound: O=C(NC1CCCC1)c1ccc(C#Cc2ccccc2)nc1
Activity [1]: Active
EC50 [2]: 30 nM
Activity [3]: inactive
half-life [4]: 4 h
Activity [5]: Active
Ki [6]: 1800 nM
half-life [7]: 1 h
Kp [8]: 0.3
Activity [9]: inactive
Activity [10]: Active
Activity [11]: inactive
Kp [12]: 0.5
Activity [13]: Active
solubility [14]: 1.7 µM (≈ 0.494 µg/mL)
Activity [15]: 30%
Activity [16]: inactive

Compound: C(#Cc1ccc(C(N2CCOCC2)N2CCOCC2)cc1)c1ccccc1
EC50 [2]: 970 nM
Activity [17]: 73%

Compound: CCOC(=O)c1ccc(C#Cc2ccccc2)nc1
EC50 [18]: Not Active

Compound: O=C(NCc1ccco1)c1ccc(C#Cc2ccccc2)nc1
EC50 [2]: 180 nM

Compound: CN1CCN(C(=O)c2ccc(C#Cc3ccccc3)cc2)CC1
EC50 [2]: 3100 nM

Compound: NC(=O)c1ccc(C#Cc2ccccc2)nc1
EC50 [2]: 6600 nM

Compound: CC(C)CCNC(=O)c1ccc(C#Cc2ccccc2)nc1
EC50 [2]: 510 nM

Compound: O=C(NCc1ccsc1)c1ccc(C#Cc2ccccc2)cc1
EC50 [2]: 1200 nM

Compound: O=C(NC1CCCCC1)c1ccc(C#Cc2ccccc2)nc1
EC50 [2]: 240 nM

Compound: O=C(NCc1ccsc1)c1ccc(C#Cc2ccccc2)nc1
EC50 [2]: 140 nM
